Measured values published in US8664221B2 (Santen Pharmaceutical Co., Ltd., priority 2008, dated 2014).

tested on: IL-6 production induced by lipopolysaccharide (LPS) in human corneal epithelial cells (HCE-T); test: Inhibition of LPS-induced IL-6 production in human corneal epithelial cells (GR agonist activity); type: cell-based; details: Corneal epithelial cell, 10 μL of 100 μM test compound solution per well, 4 hours incubation, efficacy relative to DEX
Experimental: In order to evaluate a GR agonist activity of the present compound, the inhibitory effects on the IL-6 production induced by lipopolysaccharide (LPS) in human corneal epithelial cells. IL-6 levels in the conditioned medium were measured using the HTRF human IL-6 Kit (boehringer-Ingelheim, Cat No. 62IL6PEB), and the procedure was carried out according to the protocol attached to the kit. Hereinafter, the specific method will be described.
LPS solution: After LPS was dissolved in phosphate buffer solution (hereinafter referred to as PBS(−)), the resulting solution was diluted with 10% FBS-DMEM/F12 medium, whereby a 1 μg/mL LPS solution was prepared.
After a test compound was dissolved in dimethylsulfoxide (hereinafter referred to as DMSO), the resulting solution was diluted with 10% FBS-DMEM/F12 medium, whereby a 100 μM test compound solution was prepared. A 100 μM DEX solution was prepared by the same method, and the inhibitory ratio of IL-6 production of DEX was evaluated to use for calculating efficacy (% DEX).
Used cell: SV40-immortalized human corneal epithelial cells (HCE-T) (RIKEN)
1) HCE-T cells were harvested, and seeded at 2.0×10^4 cells/0.1 mL/well in a 96-well plate.
2) After incubation overnight, the medium was removed and a 80 μL of new 10% FBS-DMEM/Ham's F12 medium was added into each well.
3) A 10 μL of test compounds solution was added into each well.
4) A 10 μL of LPS solution was added into each well.
5) As a negative control, a 10 μL of 10% FBS-DMEM/Ham's F12 medium was added into each well instead of a test compound solution and a LPS solution.
6) As a positive control, a 10 μL of 10% FBS-DMEM/Ham's F12 medium containing 1% DMSO was added into each well instead of a test compound solution.
7) After 4 hours incubation, supernatants were collected and IL-6 levels in the supernatants were quantitated using the HTRF human IL-6 Kit.
8) The inhibition ratio of IL-6 production (%) was calculated according to the following equation.
The inhibition ratio of IL-6 production (%) was calculated according to the following equation. The inhibition ratio of IL-6 production (%)=100×{1−(IL-6 level in each group−mean value of IL-6 level in negative control)/(mean value of IL-6 level in positive control−mean value of IL-6 level in negative control)} (%)
Furthermore, the inhibition ratio of IL-6 production (efficacy (% DEX)) was also calculated according to the following equation. Efficacy(% DEX)=100×{(mean value of IL-6 inhibition in compound-treated group)/(mean value of IL-6 inhibition in DEX-treated group)} (%) (Results and Discussion)

First: COc1cc(OS(C)(=O)=O)ccc1-c1ccc2c(c1COC(=O)c1ccc(C)s1)N(C)C(=O)C(C)(C)N2 [Compound No. 1-3, 7-(2-Methoxy-4-methylsulfonyloxyphenyl)-8-(5-methylthiophen-2-ylcarbonyloxymethyl)-1,3,3-trimethyl-3,4-dihydro-1H-quinoxalin-2-one]
Second: COc1cc(OS(=O)(=O)CC(C)C)ccc1-c1ccc2c(c1COC(=O)c1ccc(C)s1)N(C)C(=O)C(C)(C)N2 [Compound No. 1-21, 7-(4-Isobutylsulfonyloxy-2-methoxyphenyl)-8-(5-methylthiophen-2-ylcarbonyloxymethyl)-1,3,3-trimethyl-3,4-dihydro-1H-quinoxalin-2-one]
The Emax of the first is lower: 70% for the first, 71% for the second.

Compared with `COc1cc(OS(=O)(=O)Cc2ccccc2Cl)ccc1-c1ccc2c(c1COc1cc(F)ccc1C)N(C)C(=O)C(C)(C)N2` [Compound No. 1-14, 7-[4-(2-Chlorobenzylsulfonyloxy)-2-methoxyphenyl]-8-(5-fluoro-2-methylphenoxymethyl)-1,3,3-trimethyl-3,4-dihydro-1H-quinoxalin-2-one], `COc1cc(OS(=O)(=O)Cc2ccccc2C)ccc1-c1ccc2c(c1COc1cc(F)ccc1C)N(C)C(=O)C(C)(C)N2` [Compound No. 1-15, 8-(5-Fluoro-2-methylphenoxymethyl)-7-[2-methoxy-4-(2-methylbenzyl-sulfonyloxy)phenyl]-1,3,3-trimethyl-3,4-dihydro-IH-quinoxalin-2-one] is higher in Emax: 86% for the first, 88% for the second.

First: COc1cc(OS(=O)(=O)C2CCCCC2)ccc1-c1ccc2c(c1COc1cc(F)ccc1C)N(C)C(=O)C(C)(C)N2 [Compound No. 1-17, 7-(4-Cyclohexylsulfonyloxy-2-methoxyphenyl)-8-(5-fluoro-2-methylphenoxymethyl)-1,3,3-trimethyl-3,4-dihydro-1H-quinoxalin-2-one]
Second: COc1cc(OS(=O)(=O)C2CCCC2)ccc1-c1ccc2c(c1COc1cc([N+](=O)[O-])ccc1C)N(C)C(=O)C(C)(C)N2 [Compound No. 1-37, 7-(4-Cyclopentylsulfonyloxy-2-methoxyphenyl)-8-(2-methyl-5-nitrophenoxymethyl)-1,3,3-trimethyl-3,4-dihydro-1H-quinoxalin-2-one]
The Emax of the first is higher: 83% for the first, 74% for the second.

Going from `COc1cc(OS(=O)(=O)C2CC2)ccc1-c1ccc2c(c1COC(=O)c1ccc(C)s1)N(C)C(=O)C(C)(C)N2` [Compound No. 1-19, 7-(4-Cyclopropylsulfonyloxy-2-methoxyphenyl)-8-(5-methyl-thiophen-2-ylcarbonyloxymethyl)-1,3,3-trimethyl-3,4-dihydro-1H-quinoxalin-2-one] to `COc1cc(OS(=O)(=O)C2CCCC2)ccc1-c1ccc2c(c1COC(=O)c1ccc(C)s1)N(C)C(=O)C(C)(C)N2` [Compound No. 1-24, 7-(4-Cyclopentylsulfonyloxy-2-methoxyphenyl)-8-(5-methylthiophen-2-ylcarbonyloxymethyl)-1,3,3-trimethyl-3,4-dihydro-1H-quinoxalin-2-one], the Emax falls from 88% to 85%.

Going from `COc1cc(OS(=O)(=O)CCC(F)(F)F)ccc1-c1ccc2c(c1COC(=O)c1ccc(C)s1)N(C)C(=O)C(C)(C)N2` [Compound No. 1-20, 7-[2-Methoxy-4-(3,3,3-trifluoropropylsulfonyloxy)phenyl]-8-(5-methylthiophen-2-ylcarbonyloxymethyl)-1,3,3-trimethyl-3,4-dihydro-1H-quinoxalin-2-one] to `CCCS(=O)(=O)Oc1ccc(-c2ccc3c(c2COC(=O)c2ccc(C)cc2)N(C)C(=O)C(C)(C)N3)c(OC)c1` [Compound No. 1-39, 7-(2-Methoxy-4-propylsulfonyloxyphenyl)-8-(4-methylbenzoyloxy-methyl)-1,3,3-trimethyl-3,4-dihydro-1H-quinoxalin-2-one], the Emax rises from 74% to 80%.

First: COc1ccc([N+](=O)[O-])cc1OCc1c(-c2ccc(OS(=O)(=O)C3CC3)cc2OC)ccc2c1N(C)C(=O)C(C)(C)N2 [Compound No. 1-30, 7-(4-Cyclopropylsulfonyloxy-2-methoxyphenyl)-8-(2-methoxy-5-nitrophenoxymethyl)-1,3,3-trimethyl-3,4-dihydro-1H-quinoxalin-2-one]
Second: CCCS(=O)(=O)Oc1ccc(-c2ccc3c(c2COc2cc([N+](=O)[O-])ccc2OC)N(C)C(=O)C(C)(C)N3)c(OC)c1 [Compound No. 1-31, 8-(2-Methoxy-5-nitrophenoxymethyl)-7-(2-methoxy-4-propyl-sulfonyloxyphenyl)-1,3,3-trimethyl-3,4-dihydro-1H-quinoxalin-2-one]
The Emax of the first is lower: 74% for the first, 76% for the second.

First: COc1cc(OS(=O)(=O)C(C)C)ccc1-c1ccc2c(c1COc1cc([N+](=O)[O-])ccc1C)N(C)C(=O)C(C)(C)N2 [Compound No. 1-35, 7-(4-Isopropylsulfonyloxy-2-methoxyphenyl)-8-(2-methyl-5-nitro-phenoxymethyl)-1,3,3-trimethyl-3,4-dihydro-1H-quinoxalin-2-one]
Second: COc1cc(OS(C)(=O)=O)ccc1-c1ccc2c(c1COc1cc([N+](=O)[O-])ccc1C)N(C)C(=O)C(C)(C)N2 [Compound No. 1-36, 7-(2-Methoxy-4-methylsulfonyloxyphenyl)-8-(2-methyl-5-nitro-phenoxymethyl)-1,3,3-trimethyl-3,4-dihydro-1H-quinoxalin-2-one]
The Emax of the first is higher: 79% for the first, 72% for the second.

Going from `COc1cc(OS(=O)(=O)CCCCl)ccc1-c1ccc2c(c1COc1cc(F)ccc1C)N(C)C(=O)C(C)(C)N2` [Compound No. 1-40, 7-[4-(3-Chloropropylsulfonyloxy)-2-methoxyphenyl]-8-(5-fluoro-2-methylphenoxymethyl)-1,3,3-trimethyl-3,4-dihydro-1H-quinoxalin-2-one] to `COc1cc(OS(=O)(=O)CCl)ccc1-c1ccc2c(c1COc1cc(F)ccc1C)N(C)C(=O)C(C)(C)N2` [Compound No. 1-41, 7-(4-Chloromethylsulfonyloxy-2-methoxyphenyl)-8-(5-fluoro-2-methylphenoxymethyl)-1,3,3-trimethyl-3,4-dihydro-1H-quinoxalin-2-one], the Emax rises from 84% to 85%.

Going from `COc1cc(OS(=O)(=O)CCCNCc2ccccc2)ccc1-c1ccc2c(c1COc1cc(F)ccc1C)N(C)C(=O)C(C)(C)N2` [Compound No. 3-1, 7-[4-(3-Benzylaminopropylsulfonyloxy)-2-methoxyphenyl]-8-(5-fluoro-2-methylphenoxymethyl)-1,3,3-trimethyl-3,4-dihydro-1H-quinoxalin-2-one] to `CCCNCCCS(=O)(=O)Oc1ccc(-c2ccc3c(c2COc2cc(F)ccc2C)N(C)C(=O)C(C)(C)N3)c(OC)c1` [Compound No. 3-2, 8-(5-Fluoro-2-methylphenoxymethyl)-7-[2-methoxy-4-(3-propylaminopropyl-sulfonyloxy)phenyl]-1,3,3-trimethyl-3,4-dihydro-1H-quinoxalin-2-one], the Emax falls from 78% to 70%.

Work on `COc1cc(OS(=O)(=O)CCCN2CCOCC2)ccc1-c1ccc2c(c1COc1cc(F)ccc1C)N(C)C(=O)C(C)(C)N2` [Compound No. 3-3, 8-(5-Fluoro-2-methylphenoxymethyl)-7-[2-methoxy-4-[3-(morpholin-4-yl)propylsulfonyloxy]phenyl]-1,3,3-trimethyl-3,4-dihydro-1H-quinoxalin-2-one] yielded an Emax of 85%.
